Assay results published in patent US20080113900A1, “Pharmaceutical compositions and therapeutic applications for the use of a synthetic vitamin B12 derivative, glutathionylcobalamin” (priority 2006, published 2008).
Where “and” joins values, the source holds several entries; their conditions need not be identical. Equal entries are not always repeated.

How the values were obtained:
SK-HEP-1 cells = assay: Protection of endothelial cells from homocysteine-induced cell death (MTS assay); type: cell-based, human; conditions: for Mean (FIG. 14a, protection of SK-HEP-1 cells from Hcy in the presence of folate): folate 25 μM present, [GSCbl] = 15 μM, [CNCbl] = 15 μM, [MeCbl] = 12.5 μM, [HOCbl] = 17.5 μM, [GSH] = 100 μM; for Absorbance at 490 nm: single replicates Y1-Y6
Experimental: The effect of a constant concentration of NACCbl and GSCbl to protect cells against variable concentrations of homocysteine was assessed. […] Cell viability was determined by MTS® assay. Data shown in FIG. 4 are representative of means ±SE of 6 independent samples. FIG. 4 illustrates that NACCbl (▪) and GSCbl (▴) protect endothelial cells from the effect of homocysteine. […] Cell viability was determined by MTS® assay. […] There was a decrease in protection as homocysteine concentration increased, but there was still ˜60% survival at 50 μM homocysteine.
The data was normalized (log 2 and log 10) as shown in FIGS. 16 and 17 and Tables 16 and 17, respectively, below.

[1] = Decomposition in PBS at 37° C. monitored by UV/Vis spectrophotometry; type: physicochemical
Experimental: The decomposition of GSCbl, NACCbl, and HcyCbl in PBS at 37° C. was monitored by UV/Vis spectrophotometry.

Hsp32 = Hsp32 gene expression (RT-PCR, densitometry); type: cell-based, human; conditions: SK-HEP-1; Sn (IX) protoporphyrin 25 μM; Quercitin 15 μM
Hsp70 = Hsp70 gene expression (RT-PCR, densitometry); conditions: SK-HEP-1; Quercitin 15 μM
Experimental: Cells were plated into 6-, 12-, or 24-well cell culture clusters, at 2×10^3, 2×10^5, or 1×10^5 cells per well and incubated until 90% confluent. Treatments were applied as above.
Following incubation, cells were subjected to mRNA extraction followed by cDNA synthesis for each sample under test. Polymerase chain reaction cDNA templates were prepared for simplex PCR protocol. PCR products were then visualized using a UV Transilluminator and images captured using a Kodak ID gel imaging system. Densitometry and statistical analysis was then performed on each gene expression band image using PSP® v 10.0 running under Windows XP®.
mRNA extraction was performed using the Quickprep micro mRNA Purification Kit. Following incubation of cells post-treatment, the media was removed from the cells, adherent cells were re-suspended in 0.4 ml extraction buffer and 0.8 ml elution buffer at 65° C. was added.
A reaction mixture was prepared in individual microcentrifuge tubes containing 2 cDNA synthesis beads, 32 μl of the mRNA solution and 1 μl of pd(N)6. This mixture was incubated at 37° C. in a water bath for 60 minutes. After incubation, 27 μl of RNase-free DEPC treated water was added to each tube to make a total volume 60 μl. cDNA samples were prepared in duplicate. Sample 1 was used immediately in RT-PCR protocol.
Microcentrifuge tubes from puReTaq™Ready-To-Go™ PCR Beads containing one PCR bead were labeled for each sample required. Added to the PCR bead were 17 μl of RNase-free DEPC treated water, 1 μl sense primer, 1 μl anti-sense primer and 5 μl of the cDNA solution. RT-PCR conditions were as follows: Hsp70 and β-actin, pre-treatment step, 94° C. for 1 minute, followed by denaturing at 92° C. for 1 minute, annealing at 60° C. for 1 minute and extension at 72° C. for 1 minute. Total cycles, 30, post-treatment was then carried out at 72° C. for 10 minutes. For Hsp32, pre-treatment step, 95° C. for 2 minutes, followed by denaturing at 94° C. for 30 seconds, annealing at 58° C. for 1 minute and extension at 72° C. for 1 minute. […]

[2] = [Hcy] 30 μM, [NACCbl] = 12.5 μM, [NAC] = 45 μM
[3] = Conc. Hcy 0.000, NACCbl 30 μM, NAC 75 μM, n = 6
[4] = Conc. Hcy 1.780, NACCbl 30 μM, NAC 75 μM, n = 6
[5] = Conc. Hcy 3.125, NACCbl 30 μM, NAC 75 μM, n = 6
[6] = Conc. Hcy 6.250, NACCbl 30 μM, NAC 75 μM, n = 6
[7] = Conc. Hcy 12.500, NACCbl 30 μM, NAC 75 μM, n = 6
[8] = Conc. Hcy 25.000, NACCbl 30 μM, NAC 75 μM, n = 6
[9] = Conc. Hcy 50.000, NACCbl 30 μM, NAC 75 μM, n = 6
[10] = Conc. Hcy 100.000, NACCbl 30 μM, NAC 75 μM, n = 6
[11] = Conc. Hcy 200.000, NACCbl 30 μM, NAC 75 μM, n = 6

## N[C@@H](CCC(=O)N[C@@H](CS)C(=O)NCC(=O)O)C(=O)O [GSH, γ-L-Glutamyl-L-cysteinyl-glycine, reference compound]
SK-HEP-1 cells; [2]
  Mean (FIG. 14a, protection of SK-HEP-1 cells from Hcy in the presence of folate): 1.409

## C/C1=C2/[N-][C@H]([C@H](CC(N)=O)[C@@]2(C)CCC(=O)NC[C@@H](C)OP(=O)([O-])O[C@H]2[C@@H](O)[C@@H](n3cnc4cc(C)c(C)cc43)O[C@@H]2CO)[C@]2(C)N=C(/C(C)=C3N=C(/C=C4N=C1[C@@H](CCC(N)=O)C\4(C)C)[C@@H](CCC(N)=O)[C@]\3(C)CC(N)=O)[C@@H](CCC(N)=O)[C@]2(C)CC(N)=O.[Co+3].[OH-] [HOCbl, Hydroxocobalamin, reference compound]
SK-HEP-1 cells; [2]
  Mean (FIG. 14a, protection of SK-HEP-1 cells from Hcy in the presence of folate): 0.9498

## CC1=C2N=C(C=C3N=C(C(C)=C4[N-]C(C(CC(N)=O)C4(C)CCC(=O)NCC(C)OP(=O)([O-])OC4C(CO)OC(n5cnc6cc(C)c(C)cc65)C4O)C4(C)N=C1C(CCC(N)=O)C4(C)CC(N)=O)C(CCC(N)=O)C3(C)C)C(CCC(N)=O)C2(C)CC(N)=O.NC(CC[S-])C(=O)O.[Co+3] [HcyCbl, D,L-homocysteinyl-cobalamin]
[1]
  Kobs: 0.0018 min⁻¹
  t1/2: 6.6 h

## C/C1=C2/[N-][C@H]([C@H](CC(N)=O)[C@@]2(C)CCC(=O)NC[C@H](C)OP(=O)([O-])O[C@H]2[C@@H](O)[C@@H](n3cnc4cc(C)c(C)cc43)O[C@@H]2CO)[C@]2(C)N=C(/C(C)=C3N=C(/C=C4N=C1[C@@H](CCC(N)=O)C\4(C)C)[C@@H](CCC(N)=O)[C@]\3(C)CC(N)=O)[C@@H](CCC(N)=O)[C@]2(C)CC(N)=O.[CH3-].[Co+3] [MeCbl, Methylcobalamin, reference compound]
SK-HEP-1 cells; [2]
  Mean (FIG. 14a, protection of SK-HEP-1 cells from Hcy in the presence of folate): 1.322

## CC(=O)N[C@@H](CS)C(=O)O [NAC, N-Acetyl-L-Cysteine, reference compound]
SK-HEP-1 cells; [3]
  Normalized Data Log 2, Mean: 84.288
  Normalized Data Log 10, Mean: 100.000
SK-HEP-1 cells; [4]
  Normalized Data Log 2, Mean: 69.880
  Normalized Data Log 10, Mean: 83.752
SK-HEP-1 cells; [5]
  Normalized Data Log 2, Mean: 60.687
  Normalized Data Log 10, Mean: 73.385
SK-HEP-1 cells; [6]
  Normalized Data Log 2, Mean: 58.837
  Normalized Data Log 10, Mean: 71.298
SK-HEP-1 cells; [7]
  Normalized Data Log 2, Mean: 45.397
  Normalized Data Log 10, Mean: 56.141
SK-HEP-1 cells; [8]
  Normalized Data Log 2, Mean: 41.900
  Normalized Data Log 10, Mean: 52.198
SK-HEP-1 cells; [9]
  Normalized Data Log 2, Mean: 24.035
  Normalized Data Log 10, Mean: 32.051
SK-HEP-1 cells; [10]
  Normalized Data Log 2, Mean: 13.738
  Normalized Data Log 10, Mean: 20.439
SK-HEP-1 cells; [11]
  Normalized Data Log 2, Mean: 11.135
  Normalized Data Log 10, Mean: 17.503
SK-HEP-1 cells; Conc. of Hcy 0.000, NACCbl 30 μM, NAC 75 μM
  Absorbance at 490 nm: 2.592 and 2.476 and 2.437 and 2.678 and 2.336 and 2.447
SK-HEP-1 cells; Conc. of Hcy 1.780, NACCbl 30 μM, NAC 75 μM
  Absorbance at 490 nm: 2.225 and 1.903 and 1.947 and 2.310 and 2.187 and 2.206
SK-HEP-1 cells; Conc. of Hcy 3.725, NAC 75 μM
  Absorbance at 490 nm: 1.890 and 2.003 and 1.784 and 1.946 and 1.958 and 1.801
SK-HEP-1 cells; Conc. of Hcy 6.250, NACCbl 30 μM, NAC 75 μM
  Absorbance at 490 nm: 1.678 and 1.789 and 1.897 and 1.899 and 1.933 and 1.905
SK-HEP-1 cells; Conc. of Hcy 12.500, NACCbl 30 μM, NAC 75 μM
  Absorbance at 490 nm: 1.675 and 1.232 and 1.339 and 1.590 and 1.602 and 1.622
SK-HEP-1 cells; Conc. of Hcy 25.000, NACCbl 30 μM, NAC 75 μM
  Absorbance at 490 nm: 1.345 and 1.501 and 1.632 and 1.378 and 1.226 and 1.447
SK-HEP-1 cells; Conc. of Hcy 50.000, NACCbl 30 μM, NAC 75 μM
  Absorbance at 490 nm: 0.890 and 0.821 and 1.034 and 1.227 and 0.799 and 1.045
SK-HEP-1 cells; Conc. of Hcy 100.000, NACCbl 30 μM, NAC 75 μM
  Absorbance at 490 nm: 0.789 and 0.842 and 0.743 and 0.589 and 0.490 and 0.799
SK-HEP-1 cells; Conc. of Hcy 200.000, NACCbl 30 μM, NAC 75 μM
  Absorbance at 490 nm: 0.567 and 0.668 and 0.623 and 0.490 and 0.721 and 0.788
SK-HEP-1 cells; SK-HEP-1, NACCbl 30 μM, NAC 75 μM, Hcy conc. 200.000, n = 6, label Hcy = Hcy alone
  Absorbance at 490 nm, Mean: 0.643
SK-HEP-1 cells; [Hcy] 30 μM, [NAC] = 45 μM, [NACCbl] = 12.5 μM, [Folate] = 25 μM where named in the label, label Hcy/HCy = Hcy alone
  Mean (FIG. 14, protection of SK-HEP-1 cells from Hcy): 1.296
SK-HEP-1 cells; [2]
  Mean (FIG. 14a, protection of SK-HEP-1 cells from Hcy in the presence of folate): 1.438
SK-HEP-1 cells; as E80, Hcy conc. 0.000
  Absorbance at 490 nm, Mean: 2.494
SK-HEP-1 cells; as E80, Hcy conc. 1.780
  Absorbance at 490 nm, Mean: 2.130
SK-HEP-1 cells; as E80, Hcy conc. 3.125
  Absorbance at 490 nm, Mean: 1.897
SK-HEP-1 cells; as E80, Hcy conc. 6.250
  Absorbance at 490 nm, Mean: 1.850
SK-HEP-1 cells; as E80, Hcy conc. 12.500
  Absorbance at 490 nm, Mean: 1.510
SK-HEP-1 cells; as E80, Hcy conc. 25.000
  Absorbance at 490 nm, Mean: 1.421
SK-HEP-1 cells; as E80, Hcy conc. 50.000
  Absorbance at 490 nm, Mean: 0.969
SK-HEP-1 cells; as E80, Hcy conc. 100.000
  Absorbance at 490 nm, Mean: 0.709

## O.O.O=c1c(O)c(-c2ccc(O)c(O)c2)oc2cc(O)cc(O)c12 [Quercitin, 2-(3,4-Dihydroxyphenyl)-3,5,7-trihydroxy-4H-1-benzopyran-4-one dihydrate]
Hsp32
  Hsp32 gene expression: does not inhibit
Hsp70
  Hsp70 gene expression: inhibits

## C=CC1=C(C)c2cc3[n-]c(cc4[n-]c(cc5nc(cc1n2)C(C)=C5C=C)c(C)c4CCC(=O)O)c(CCC(=O)O)c3C.[Cl-].[Cl-].[Sn+4] [Sn(IX) protoporphyrin, 8,13-Bis(vinyl)-3,7,12,17-tetramethyl-21H, 23H-porphine-2,18dipropionic acid tin(IV) dichloride]
Hsp32
  Hsp32 gene expression: inhibited
